Assay results published in patent publication US12509452B2, “Substituted-isoxazoline-containing aromatic compound, preparation method therefor, herbicidal composition and use thereof” (QINGDAO KINGAGROOT CHEMICAL COMPOUND CO., LTD., priority 2019, dated 2025).

Experiments:
Assay in all cases: weeding effect in post-emergence stage
Assay type in all cases: in vivo
Details in all cases: dose 15 g a.i./ha
Alopecurus japonicus = system: Alopecurus japonicus
In short: (§1)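 Potted weeds were sown, covered with 0.5-2 cm soil and grown in a greenhouse, then sprayed at the 2-3 leaf stage (2 weeks after sowing) via spray tower; compounds in acetone with Tween 80 and 1.5 liter/ha methyl oleate concentrate; doses 500-7.5 g a.i./ha. Fresh-weight control scored on 0-5 levels after 3 weeks; triplicate means.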

Beckmannia syzigachne = system: Beckmannia syzigachne
In short: as §1

Conyza japonica = system: Conyza japonica
In short: as §1

Rorippa indica = system: Rorippa indica
In short: as §1

Row | Compound | weeding effect in post-emergence stage, Alopecurus japonicus (activity level) (Alopecurus japonicus) | weeding effect in post-emergence stage, Beckmannia syzigachne (activity level) (Beckmannia syzigachne) | weeding effect in post-emergence stage, Conyza japonica (activity level) (Conyza japonica) | weeding effect in post-emergence stage, Rorippa indica (activity level) (Rorippa indica)
1 | CCOC(=O)[C@]1(CC)CC(c2cc(-n3c(=O)cc(C(F)(F)F)n(C)c3=S)c(F)cc2Cl)=NO1 [229(S)] | 5 (Level 5: growth control rate is above 85%) | 5 (Level 5: growth control rate is above 85%) | 5 (Level 5: growth control rate is above 85%) | 5 (Level 5: growth control rate is above 85%)
2 | CCOC(=O)C1(C)CC(c2cc(-n3c(=O)cc(C(F)(F)F)n(C)c3=O)c(F)cc2Cl)=NO1 (centres unmarked) [Compound 1-9] | 5 (Level 5: growth control rate is above 85%) | 5 (Level 5: growth control rate is above 85%) | 5 (Level 5: growth control rate is above 85%) | 5 (Level 5: growth control rate is above 85%)
3 | CCOC(=O)CCC1(C)CC(c2cc(-n3c(=O)cc(C(F)(F)F)n(C)c3=O)c(F)cc2Cl)=NO1 (centres unmarked) [Compound 1-37] | 5 (Level 5: growth control rate is above 85%) | 5 (Level 5: growth control rate is above 85%) | 5 (Level 5: growth control rate is above 85%) | 5 (Level 5: growth control rate is above 85%)
4 | CCOC(=O)CCCC1(C)CC(c2cc(-n3c(=O)cc(C(F)(F)F)n(C)c3=O)c(F)cc2Cl)=NO1 (centres unmarked) [Compound 1-39] | 5 (Level 5: growth control rate is above 85%) | 5 (Level 5: growth control rate is above 85%) | 5 (Level 5: growth control rate is above 85%) | 5 (Level 5: growth control rate is above 85%)
5 | COC(=O)C1(C)CC(c2cc(-n3c(=O)n(C)c(=S)n(C)c3=O)c(F)cc2Cl)=NO1 (centres unmarked) [Compound 1-60] | 5 (Level 5: growth control rate is above 85%) | 5 (Level 5: growth control rate is above 85%) | 5 (Level 5: growth control rate is above 85%) | 5 (Level 5: growth control rate is above 85%)
6 | CCOC(=O)C1(C)CC(c2cc(-n3c(=O)n(C)c(=S)n(C)c3=O)c(Cl)cc2Cl)=NO1 (centres unmarked) [Compound 1-61] | 5 (Level 5: growth control rate is above 85%) | 5 (Level 5: growth control rate is above 85%) | 5 (Level 5: growth control rate is above 85%) | 5 (Level 5: growth control rate is above 85%)
7 | CCOC(=O)[C@]1(C)CC(c2cc(-n3c(=O)n(C)c(=S)n(C)c3=O)c(F)cc2Cl)=NO1 [Compound 1-62] | 5 (Level 5: growth control rate is above 85%) | 5 (Level 5: growth control rate is above 85%) | 5 (Level 5: growth control rate is above 85%) | 5 (Level 5: growth control rate is above 85%)
8 | CCOC(=O)C1(C)CC(c2cc(-n3c(=O)n(CC)c(=S)n(CC)c3=O)c(F)cc2Cl)=NO1 (centres unmarked) [Compound 1-64] | 5 (Level 5: growth control rate is above 85%) | 5 (Level 5: growth control rate is above 85%) | 5 (Level 5: growth control rate is above 85%) | 5 (Level 5: growth control rate is above 85%)
9 | CCOC(=O)C1(C)CC(c2cc(-n3c(=O)n(C(C)C)c(=S)n(C(C)C)c3=O)c(F)cc2Cl)=NO1 (centres unmarked) [Compound 1-65] | 5 (Level 5: growth control rate is above 85%) | 5 (Level 5: growth control rate is above 85%) | 5 (Level 5: growth control rate is above 85%) | 5 (Level 5: growth control rate is above 85%)
10 | CCOC(=O)C1(C)CC(c2cc(-n3c(=O)n(C4CC4)c(=S)n(C4CC4)c3=O)c(F)cc2Cl)=NO1 (centres unmarked) [Compound 1-66] | 5 (Level 5: growth control rate is above 85%) | 5 (Level 5: growth control rate is above 85%) | 5 (Level 5: growth control rate is above 85%) | 5 (Level 5: growth control rate is above 85%)
11 | CCOC(=O)C1(C)CC(c2cc(-n3c(=O)n(C)c(=S)n(C)c3=O)c(F)cc2C(F)(F)F)=NO1 (centres unmarked) [Compound 1-67] | 5 (Level 5: growth control rate is above 85%) | 5 (Level 5: growth control rate is above 85%) | 5 (Level 5: growth control rate is above 85%) | 5 (Level 5: growth control rate is above 85%)
12 | CCOC(=O)C1(C)CC(c2cc(-n3c(=O)n(C)c(=S)n(C)c3=O)c(F)cc2C#N)=NO1 (centres unmarked) [Compound 1-69] | 5 (Level 5: growth control rate is above 85%) | 5 (Level 5: growth control rate is above 85%) | 5 (Level 5: growth control rate is above 85%) | 5 (Level 5: growth control rate is above 85%)
13 | CCCOC(=O)C1(C)CC(c2cc(-n3c(=O)n(C)c(=S)n(C)c3=O)c(F)cc2Cl)=NO1 (centres unmarked) [Compound 1-70] | 5 (Level 5: growth control rate is above 85%) | 5 (Level 5: growth control rate is above 85%) | 5 (Level 5: growth control rate is above 85%) | 5 (Level 5: growth control rate is above 85%)
14 | CC(C)OC(=O)C1(C)CC(c2cc(-n3c(=O)n(C)c(=S)n(C)c3=O)c(F)cc2Cl)=NO1 (centres unmarked) [Compound 1-71] | 5 (Level 5: growth control rate is above 85%) | 5 (Level 5: growth control rate is above 85%) | 5 (Level 5: growth control rate is above 85%) | 5 (Level 5: growth control rate is above 85%)
15 | CCCCOC(=O)C1(C)CC(c2cc(-n3c(=O)n(C)c(=S)n(C)c3=O)c(F)cc2Cl)=NO1 (centres unmarked) [Compound 1-72] | 5 (Level 5: growth control rate is above 85%) | 5 (Level 5: growth control rate is above 85%) | 5 (Level 5: growth control rate is above 85%) | 5 (Level 5: growth control rate is above 85%)
16 | CC(C)COC(=O)C1(C)CC(c2cc(-n3c(=O)n(C)c(=S)n(C)c3=O)c(F)cc2Cl)=NO1 (centres unmarked) [Compound 1-73] | 5 (Level 5: growth control rate is above 85%) | 5 (Level 5: growth control rate is above 85%) | 5 (Level 5: growth control rate is above 85%) | 5 (Level 5: growth control rate is above 85%)
17 | Cn1c(=S)n(C)c(=O)n(-c2cc(C3=NOC(C)(C(=O)OC(C)(C)C)C3)c(Cl)cc2F)c1=O (centres unmarked) [Compound 1-74] | 5 (Level 5: growth control rate is above 85%) | 5 (Level 5: growth control rate is above 85%) | 5 (Level 5: growth control rate is above 85%) | 5 (Level 5: growth control rate is above 85%)
18 | CCCCCCC(C)OC(=O)C1(C)CC(c2cc(-n3c(=O)n(C)c(=S)n(C)c3=O)c(F)cc2Cl)=NO1 (centres unmarked) [Compound 1-75] | 5 (Level 5: growth control rate is above 85%) | 5 (Level 5: growth control rate is above 85%) | 5 (Level 5: growth control rate is above 85%) | 5 (Level 5: growth control rate is above 85%)
19 | C=CCOC(=O)C1(C)CC(c2cc(-n3c(=O)n(C)c(=S)n(C)c3=O)c(F)cc2Cl)=NO1 (centres unmarked) [Compound 1-76] | 5 (Level 5: growth control rate is above 85%) | 5 (Level 5: growth control rate is above 85%) | 5 (Level 5: growth control rate is above 85%) | 5 (Level 5: growth control rate is above 85%)
20 | C#CCOC(=O)C1(C)CC(c2cc(-n3c(=O)n(C)c(=S)n(C)c3=O)c(F)cc2Cl)=NO1 (centres unmarked) [Compound 1-79] | 5 (Level 5: growth control rate is above 85%) | 5 (Level 5: growth control rate is above 85%) | 5 (Level 5: growth control rate is above 85%) | 5 (Level 5: growth control rate is above 85%)
